These results are taken from ChEMBL document CHEMBL3792339, “Identification of new quinic acid derivatives as histone deacetylase inhibitors by fluorescence-based cellular assay” (Bioorg Med Chem Lett, 2016).

Assay [1] deals with C127-LT. The assay is described as follows: Inhibition of HDAC in mouse C127-LT cells assessed as activation of EGFP expression at 10 uM after 24 hrs by fluorescence microscopy. The class given is cell-based.
Assay [2] has as its system C127-LT. Briefly: Inhibition of HDAC in mouse C127-LT cells assessed as activation of EGFP expression at 1 uM after 24 hrs by fluorescence microscopy. The class given is cell-based.
Assay [3] addresses Histone deacetylase. Briefly: Inhibition of HDAC in human HeLa nuclear extract using fluor de lys as substrate after 10 to 15 mins by spectrofluorometry. The class given is protein assay.
Assay [4] has as its target Histone deacetylase. The assay is described as follows: Inhibition of HDAC in human HeLa cells using Boc-Lys(AC)-AMC as substrate after 24 to 48 hrs by spectrofluorometry. The class given is cell-based.
In assay [5] the target is T1, Histone deacetylase (Homo sapiens) (UniProt Q13547+O15379+Q9UBN7+Q92769+Q9UQL6+Q8WUI4+Q9BY41+Q96DB2+P56524+Q9UKV0+Q969S8). Briefly: Inhibition of HDAC in human HeLa nuclear extract assessed as accumulation of acetylated histone H3 at 0.1 to 100 uM after 24 hrs by western blot analysis. The class given is protein assay. On the technique in general: Immunoblotting shows a protein as a band on a membrane.

Assay [6] deals with T1, Histone deacetylase (Homo sapiens). The note with it: at 10 to 25 µM.
Description: Competitive inhibition of HDAC in human HeLa nuclear cells at 10 to 25 uM using Boc-acetyl-lysine-AMC as substrate after 30 mins by Lineweaver-Burk plot analysis
The test system of assay [7] is C127-LT. The assay is described as follows: Inhibition of HDAC in mouse C127-LT cells assessed as activation of EGFP expression at 200 nM after 24 hrs by fluorescence microscopy. It is filed as cell-based.

The source made the active and inactive calls. No cut-off for these calls is given here.

Consider `C=C(CO)C(=O)O[C@H]1CC(=C)[C@@H]2C[C@H](O)C(=C)[C@@H]2[C@H]2OC(=O)C(=C)[C@@H]21`, for which the inhibition result in the assay on C127-LT [1] is “inactive”.

In the case of `Nc1ccccc1NC(=O)c1ccc(CNC(=O)OCc2cccnc2)cc1`, the inhibition entry with C127-LT [2] and in the assay on C127-LT [1] was “Active” in each case. Consider `C=C1[C@@H]2[C@H]3OC(=O)[C@@H](CN[C@@H](Cc4c[nH]c5ccccc45)C(=O)O)[C@@H]3[C@@H](O)CC(=C)[C@@H]2C[C@@H]1O`, for which, in the assay on C127-LT [1], the inhibition entry was “inactive”. Take `COc1cc2c(cc1OC)[C@@H]1Cc3ccc(O)c(O)c3CN1CC2`: the inhibition entry in the assay on C127-LT [1] is “Active”. Still for that read-out and setting: under `COc1cc2c3c(cc4ccccc4c3c1O)NC2=O` stands “inactive”; under `COc1ccc2cc3[n+](cc2c1OC)CCc1cc2c(cc1-3)OCO2`, “Active”. With `COC(=O)[C@]1(O)C[C@@H](OC(=O)/C=C/c2ccc(O)c(O)c2)[C@@H](O)[C@H](OC(=O)/C=C/c2ccc(O)c(O)c2)C1`, the inhibition result (in the assay with C127-LT [1]; in assay [5]; in assay [6]) was “Active” in each case. The IC50 against Histone deacetylase [3] stood at 4.99 µM; on Histone deacetylase [4], 7.59 µM. For `CC(/C=C/C(=O)NO)=C\[C@@H](C)C(=O)c1ccc(N(C)C)cc1`, the inhibition entry in the assay with C127-LT [7] is “Active”. As for `C=C1CC[C@@H]2[C@](C)(CCC[C@]2(C)C(=O)O)[C@H]1CCC1=CC(OCCCC)OC1=O` (some centres undefined), in the assay on C127-LT [1], the inhibition result was “inactive”. In the case of `O=C(/C=C/c1ccc(O)c(O)c1)O[C@@H]1C[C@@](O)(C(=O)O)C[C@@H](O)[C@@H]1O`, the inhibition entry in the assay with C127-LT [1] is “inactive”. Besides, the figures for the concentration for half-maximal inhibition (IC50) against Histone deacetylase [3] and against Histone deacetylase [4] were 170.4 µM and more than 200 µM, respectively. In the case of `C=C1[C@@H]2[C@H]3OC(=O)[C@@H](CN[C@H](C(=O)O)C(C)C)[C@@H]3[C@@H](O)CC(=C)[C@@H]2C[C@@H]1O`, in the assay on C127-LT [1], the inhibition result is “inactive”.

`C=C1C(=O)O[C@@H]2[C@H]3C(=C)[C@@H](O)C[C@H]3C(=C)C[C@H](OC(=O)C(C)(O)CO)[C@@H]12` (some centres undefined): the inhibition entry in the assay with C127-LT [1] is “inactive”. On the same count and under the same terms, under `C=C1C(=O)O[C@@H]2[C@H]3C(=C)[C@@H](O)C[C@H]3C(=C)C[C@H](OC(=O)CC(C)(C)O)[C@@H]12` stands “inactive”. Still for that read-out and setting: the same measure for `C=C1[C@@H]2[C@H]3OC(=O)[C@@H](CN4CCC[C@H]4C(=O)O)[C@@H]3[C@@H](OC(=O)C(C)(O)CO)CC(=C)[C@@H]2C[C@@H]1O` (some centres undefined): “inactive”.

As to `O=C(/C=C/c1ccc(O)c(O)c1)O[C@@H]1C[C@](O)(C(=O)O)C[C@@H](O)[C@H]1O` [CHLOROGENIC ACID], the inhibition result in the assay on C127-LT [1] is “inactive”. The half-maximal inhibitory concentration (IC50) on Histone deacetylase [3] and at Histone deacetylase [4] was more than 200 µM throughout. As for `CC(=O)OCCc1ccc(O)c(O)c1`, in the assay on C127-LT [1], the inhibition entry was “Active”. With `COc1cc(-c2oc3cc(O)cc(O)c3c(=O)c2O[C@@H]2O[C@H](CO[C@@H]3O[C@@H](C)[C@H](O)[C@@H](O)[C@H]3O)[C@@H](O)[C@H](O)[C@H]2O)ccc1O`, the inhibition entry in the assay with C127-LT [1] was “Active”. For the compound `O=C(/C=C/c1ccc(O)c(O)c1)O[C@@H]1C[C@](O)(C(=O)O)C[C@@H](OC(=O)/C=C/c2ccc(O)c(O)c2)[C@H]1O`, the inhibition entry in the assay with C127-LT [1] was “inactive”. For the same compound, the IC50 was 143.24 µM on Histone deacetylase [3] and more than 500 µM on Histone deacetylase [4].

For orientation: IC50 means the midpoint of a concentration-inhibition curve. A higher IC50 goes with lower potency.
